Data from patent US12077503B2, “Substituted cyclic amides and their use as herbicides” (FMC CORPORATION, priority 2015, dated 2024).

How the values were obtained:
Type in all cases: in vivo
[1] = tested on: barnyardgrass (Echinochloa crus-galli); assay: Test B flooded paddy test; conditions: Flood, 250 g ai/ha; 0 to 100 scale where 0 is no effect and 100 is complete control; 13 to 15 d
Procedure, shortened: (§1)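 Response scored visually against untreated controls, 0 = no effect and 100 = complete control, 13–15 d after treatment in the greenhouse. Compounds added to paddy water held 3 cm above soil surface. Treatment given at 2-leaf stage.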

[2] = tested on: ducksalad (Heteranthera limosa); assay: Test B flooded paddy test; conditions: Flood, 250 g ai/ha; 0 to 100 scale where 0 is no effect and 100 is complete control; 13 to 15 d
Procedure, shortened: as §1

rice (Oryra sativa) = assay: Test B flooded paddy test; conditions: Flood, 250 g ai/ha; 0 to 100 scale where 0 is no effect and 100 is complete control; 13 to 15 d
Procedure, shortened: as §1

[3] = tested on: sedge, umbrella (small-flower umbrella sedge, Cyperus difformis); assay: Test B flooded paddy test; conditions: Flood, 250 g ai/ha; 0 to 100 scale where 0 is no effect and 100 is complete control; 13 to 15 d
Procedure, shortened: as §1

Kochia (Kochia scoparia) = assay: Test E preemergence; conditions: scale 0 to 100
Procedure, shortened: (§2)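 Seeds sown in silt loam treated preemergence, or plants 2 to 18 cm tall in peat-based potting medium treated postemergence, with test chemical in a non-phytotoxic solvent mixture containing surfactant. Kept in greenhouse 14 to 21 d, then visually rated against controls on a 0–100 scale (0 no effect, 100 complete control).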

corn (Zea mays) = assay: Test E preemergence; conditions: scale 0 to 100
Procedure, shortened: as §2

[4] = tested on: crabgrass, Brazil (Brazilian crabgrass, Digitaria horizontalis); assay: Test E preemergence; conditions: scale 0 to 100
Procedure, shortened: as §2

[5] = tested on: crabgrass, large (large crabgrass, Digitaria sangumnalis); assay: Test E preemergence; conditions: scale 0 to 100
Procedure, shortened: as §2

[6] = tested on: dayflower, VA (Virginia dayflower, Commelina virginica); assay: Test E preemergence; conditions: scale 0 to 100
Procedure, shortened: as §2

[7] = tested on: field bindweed (Convolvulus arvensis); assay: Test E preemergence; conditions: scale 0 to 100
Procedure, shortened: as §2

[8] = tested on: johnsongrass (Sorghum halepense); assay: Test E preemergence; conditions: scale 0 to 100
Procedure, shortened: as §2

[9] = tested on: lambsquarters (Chenopodium album); assay: Test E preemergence; conditions: scale 0 to 100
Procedure, shortened: as §2

[10] = tested on: nutsedge, yellow (yellow nutsedge, Cyperus esculentus); assay: Test E preemergence; conditions: scale 0 to 100
Procedure, shortened: as §2

[11] = tested on: pigweed, palmer (palmer pigweed, Amaranthus palmeri); assay: Test E preemergence; conditions: scale 0 to 100
Procedure, shortened: as §2

[12] = tested on: ryegrass, Italian (Italian ryegrass, Lolium multiflorum); assay: Test E preemergence; conditions: scale 0 to 100
Procedure, shortened: as §2

[13] = tested on: sandbur (southern sandbur, Cenchrus echinatus); assay: Test E preemergence; conditions: scale 0 to 100
Procedure, shortened: as §2

soybean (Glycine max) = assay: Test E preemergence; conditions: scale 0 to 100
Procedure, shortened: as §2

CN1C[C@H](c2ccc(C(F)(F)F)cc2)[C@@H](C(=O)Nc2cccc(F)c2F)C1=O [Compound 623, (3S,4S)—N-(2,3-difluorophenyl)-1-methyl-2-oxo-4-[4-(trifluoromethyl)phenyl]-3-pyrrolidinecarboxamide]
70: Plant response rating: Field Bindweed ([7]; 125 g ai/ha)
75: Plant response rating: Corn (corn (Zea mays); 125 g ai/ha) | Plant response rating: Field Bindweed ([7]; 250 g ai/ha) | Plant response rating: Pigweed, Palmer ([11]; 31 g ai/ha)
80: Plant response rating: Nutsedge, Yellow ([10]; 250 g ai/ha)
100: Plant response rating: Lambsquarters ([9]; 125 g ai/ha)
0: Plant response rating, Rice (rice (Oryra sativa)) | Plant response rating, Sedge, Umbrella [3] | Plant response rating: Corn (corn (Zea mays); 31 g ai/ha) | Plant response rating: Dayflower, VA ([6]; 31 g ai/ha) | Plant response rating: Dayflower, VA ([6]; 62 g ai/ha) | Plant response rating: Field Bindweed ([7]; 31 g ai/ha) | Plant response rating: Nutsedge, Yellow ([10]; 31 g ai/ha) | Plant response rating: Soybean (soybean (Glycine max); 31 g ai/ha) | Plant response rating: Soybean (soybean (Glycine max); 62 g ai/ha) | Plant response rating: Soybean (soybean (Glycine max); 125 g ai/ha) | Plant response rating: Soybean (soybean (Glycine max); 250 g ai/ha)
40: Plant response rating, Barnyardgrass [1] | Plant response rating: Johnsongrass ([8]; 31 g ai/ha) | Plant response rating: Nutsedge, Yellow ([10]; 125 g ai/ha)
25: Plant response rating: Ryegrass, Italian ([12]; 31 g ai/ha)
60: Plant response rating: Corn (corn (Zea mays); 62 g ai/ha) | Plant response rating: Field Bindweed ([7]; 62 g ai/ha) | Plant response rating: Johnsongrass ([8]; 62 g ai/ha) | Plant response rating: Ryegrass, Italian ([12]; 125 g ai/ha)
98: Plant response rating: Crabgrass, Brazil ([4]; 31 g ai/ha) | Plant response rating: Crabgrass, Brazil ([4]; 62 g ai/ha) | Plant response rating: Crabgrass, Brazil ([4]; 125 g ai/ha) | Plant response rating: Crabgrass, Brazil ([4]; 250 g ai/ha) | Plant response rating: Crabgrass, Large ([5]; 31 g ai/ha) | Plant response rating: Crabgrass, Large ([5]; 62 g ai/ha) | Plant response rating: Crabgrass, Large ([5]; 125 g ai/ha) | Plant response rating: Crabgrass, Large ([5]; 250 g ai/ha)
90: Plant response rating: Kochia (Kochia (Kochia scoparia); 31 g ai/ha) | Plant response rating: Kochia (Kochia (Kochia scoparia); 62 g ai/ha) | Plant response rating: Lambsquarters ([9]; 31 g ai/ha) | Plant response rating: Lambsquarters ([9]; 62 g ai/ha) | Plant response rating: Pigweed, Palmer ([11]; 62 g ai/ha) | Plant response rating: Ryegrass, Italian ([12]; 250 g ai/ha) | Plant response rating: Sandbur ([13]; 31 g ai/ha) | Plant response rating: Sandbur ([13]; 62 g ai/ha) | Plant response rating: Sandbur ([13]; 125 g ai/ha) | Plant response rating: Sandbur ([13]; 250 g ai/ha)
95: Plant response rating: Kochia (Kochia (Kochia scoparia); 125 g ai/ha) | Plant response rating: Kochia (Kochia (Kochia scoparia); 250 g ai/ha) | Plant response rating: Johnsongrass ([8]; 250 g ai/ha) | Plant response rating: Lambsquarters ([9]; 250 g ai/ha) | Plant response rating: Pigweed, Palmer ([11]; 125 g ai/ha) | Plant response rating: Pigweed, Palmer ([11]; 250 g ai/ha)
85: Plant response rating: Johnsongrass ([8]; 125 g ai/ha)
35: Plant response rating: Dayflower, VA ([6]; 250 g ai/ha)
50: Plant response rating, Ducksalad [2] | Plant response rating: Ryegrass, Italian ([12]; 62 g ai/ha)
65: Plant response rating: Corn (corn (Zea mays); 250 g ai/ha)
20: Plant response rating: Dayflower, VA ([6]; 125 g ai/ha) | Plant response rating: Nutsedge, Yellow ([10]; 62 g ai/ha)
